Source: US9006487B2, “Amine-containing lipids and uses thereof” (Massachusetts Institute of Technology, priority 2005, dated 2015)

Assays:
cos-7 cells = assay: DNA transfection: luciferase expression relative to Lipofectamine 2000; format: cell-based; settings: for Luciferase expression as a percentage of that achieved using Lipofectamine 2000: 300 ng Luciferase DNA per well; for Luciferase expression as a percentage of that achieved using Lipofectamine 2000 / % of the luciferase activity obtained from the use of Lipofectamine 2000: luciferase assay after 48 hours; for luciferase expression (second part of table, values relative to LIPO2000): 300 ng of DNA per well; for % of the luciferase activity obtained from the use of Lipofectamine 2000: 300 ng DNA per well
Summary of the method: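 cos-7 cells were transfected with 300 ng/well luciferase DNA complexed with lipid at ratios from 2.5 to 25 w/w. Bright-Glo luminescence was read after 48 hours and converted to ng luciferase by standard curve. Data are percent of the Lipofectamine 2000 control (2.5 w/w).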

[1] = tested on: renilla and firefly luciferases; assay: siRNA delivery: reporter-protein (renilla luciferase) knockdown relative to Lipofectamine 2000, firefly luciferase as viability control; format: cell-based; settings: 50 ng of siRNA per well
Experimental: Reporter-protein knockdown achieved by the top transfecting lipids relative to Lipofectamine™ 2000 (where negative values indicate improved knockdown). The assay accounts for toxicity, monitoring expression of both renilla and firefly luciferases, where the latter serves as viability control. For each lipid, 50 ng of siRNA was added per well at specific lipid/RNA w/w ratios (from top to bottom: 2.5, 5, 10, 15).

Compound	Luciferase expression as a percentage of that achieved using Lipofectamine 2000 (cos-7 cells; lipid/DNA 2.5 w/w) [%]	Luciferase expression as a percentage of that achieved using Lipofectamine 2000 (cos-7 cells; lipid/DNA 5 w/w) [%]	Luciferase expression as a percentage of that achieved using Lipofectamine 2000 (cos-7 cells; lipid/DNA 10 w/w) [%]	Luciferase expression as a percentage of that achieved using Lipofectamine 2000 (cos-7 cells; lipid/DNA 15 w/w) [%]	Luciferase expression as a percentage of that achieved using Lipofectamine 2000 (cos-7 cells; lipid/DNA 20 w/w) [%]	Luciferase expression as a percentage of that achieved using Lipofectamine 2000 (cos-7 cells; lipid/DNA 25 w/w) [%]	Reporter-protein knockdown relative to Lipofectamine 2000 (negative values indicate improved knockdown) ([1]; lipid/RNA 2.5 w/w)	Reporter-protein knockdown relative to Lipofectamine 2000 (negative values indicate improved knockdown) ([1]; lipid/RNA 5 w/w)	Reporter-protein knockdown relative to Lipofectamine 2000 (negative values indicate improved knockdown) ([1]; lipid/RNA 10 w/w)	Reporter-protein knockdown relative to Lipofectamine 2000 (negative values indicate improved knockdown) ([1]; lipid/RNA 15 w/w)	luciferase expression (second part of table, values relative to LIPO2000) (cos-7 cells; lipid/DNA 2.5 w/w)	luciferase expression (second part of table, values relative to LIPO2000) (cos-7 cells; lipid/DNA 5 w/w)	luciferase expression (second part of table, values relative to LIPO2000) (cos-7 cells; lipid/DNA 10 w/w)	luciferase expression (second part of table, values relative to LIPO2000) (cos-7 cells; lipid/DNA 15 w/w)	further results
CCCCCCCCCCCCCCCOC(=O)CCN(CCCCCO)CCC(=O)OCCCCCCCCCCCCCCC [LG32]	0.2	10.2	1.0	0.7	0.4	0.7	58.1	41.51	44.71	−13.6483					
CCCCCCCCCCCCCCOC(=O)CCN(CCOCCO)CCC(=O)OCCCCCCCCCCCCCC [LF31]	64.1	78.7	13.4	69.5	97.3	266.8	50.09	11.94	−0.8252	−10.5366	64.1	78.7	13.4	69.5	luciferase expression (second part of table, values relative to LIPO2000) (cos-7 cells; lipid/DNA 20 w/w): 97.3; luciferase expression (second part of table, values relative to LIPO2000) (cos-7 cells; lipid/DNA 25 w/w): 266.8
CCCCCCCCCCCCCCCOC(=O)CCN(CCCN(C)C)CCC(=O)OCCCCCCCCCCCCCCC [LG80]	2.2	11.9	19.8	31.3	21.9	17.4	2.007	−9.09	−15.9409	−21.0263					
CCCCCCCCCCCCNC(=O)CCN(CCCN(CCC(=O)NCCCCCCCCCCCC)CCC(=O)NCCCCCCCCCCCC)CCC(=O)NCCCCCCCCCCCC [ND100]							10.88	−7.546	−21.4945	−8.3303	45.7	48.0	20.8	2.7	luciferase expression, second set of columns (replicate set of data) (cos-7 cells; 1st column, no head printed (2.5 w/w by the raw values)): 62.6; luciferase expression, second set of columns (replicate set of data) (cos-7 cells; 2nd column, no head printed (5 w/w by the raw values)): 37.4; luciferase expression, second set of columns (replicate set of data) (cos-7 cells; 3rd column, no head printed (10 w/w by the raw values)): 2.5; luciferase expression, second set of columns (replicate set of data) (cos-7 cells; 4th column, no head printed (15 w/w by the raw values)): 0.6
CCCCCCCCCCCCOC(=O)CCN(CCOCCO)CCC(=O)OCCCCCCCCCCCC [LD31]	44.2	38.7	18.8	11.3	42.8	174.1	15.3558	−7.897	−15.5821	−16.8831	44.2	38.7	18.8	11.3	luciferase expression (second part of table, values relative to LIPO2000) (cos-7 cells; lipid/DNA 20 w/w): 42.8; luciferase expression (second part of table, values relative to LIPO2000) (cos-7 cells; lipid/DNA 25 w/w): 174.1
CCCCCCCCCCCCCOC(=O)CCN(CCCN(CCO)CCO)CCC(=O)OCCCCCCCCCCCCC [LE87]							5.504	−6.923	−8.533	−15.2929					% of the luciferase activity obtained from the use of Lipofectamine 2000 (cos-7 cells; 2.5 w/w lipid to DNA): 10.5%; % of the luciferase activity obtained from the use of Lipofectamine 2000 (cos-7 cells; 5 w/w lipid to DNA): 9.0%; % of the luciferase activity obtained from the use of Lipofectamine 2000 (cos-7 cells; 10 w/w lipid to DNA): 38.4%; % of the luciferase activity obtained from the use of Lipofectamine 2000 (cos-7 cells; 15 w/w lipid to DNA): 4.3%; % of the luciferase activity obtained from the use of Lipofectamine 2000 (cos-7 cells; 20 w/w lipid to DNA): 0.0%; % of the luciferase activity obtained from the use of Lipofectamine 2000 (cos-7 cells; 25 w/w lipid to DNA): 0.0%
CCCCCCCCCCCCCCCOC(=O)CCN(CCO)CCN(CCC(=O)OCCCCCCCCCCCCCCC)CCC(=O)OCCCCCCCCCCCCCCC [LG109]	16.3	36.0	23.4	37.9	25.7	34.5	55.7409	43.9	−5.231	−11.1255					
CCCCCCCCCCCCCCCOC(=O)CCN(CCC(=O)OCCCCCCCCCCCCCCC)CCC1CCCN1C (stereo not shown) [LG77]	0.0	0.0			0.0	0.0	71.01	−0.05414	−7.721	−21.3897					% of the luciferase activity obtained from the use of Lipofectamine 2000 (cos-7 cells; 10 w/w lipid to DNA): 43.5%; % of the luciferase activity obtained from the use of Lipofectamine 2000 (cos-7 cells; 15 w/w lipid to DNA): 34.0%
